# Test results reported in USRE37979E1, “Pyrimidine derivatives and anti-viral agent containing the same as active ingredient thereof” (priority 1989, dated 2003).
# Tested on: HIV
# Assay: Inhibitory activity for HIV infection (protection of HIV-infected MT-4 cells from death)
# Assay type: cell-based
# Settings: 5 days incubation at 37° C., concentration preventing the death of 50% of the MT-4 cells
# Procedure: Inhibitory activity for HIV infection
# (§1) In RPMI 1640 DM culture medium containing 20 mM of Hepes buffer solution, 10% fetal bovine serum and 20 μg/ml of gentamycin, 3×10^4 MT-4 cells (human T cell clone which is destroyed by the infection of HIV) were infected with HIV in an amount of 100 times as large as expected to cause 50% infection of the cells. Immediately thereafter, a predetermined amount of sample was added to the culture medium using 50 mg/ml sample solutions in dimethyl sulfoxide and the cells were cultured at 37° C.
# (§2) After 5 days of incubation, the number of existing cells was counted to determine the concentration of the compound for preventing the death of 50% of the MT-4 cells. Separately, MT-4 cells were cultured in the same way as above except that they were not infected with HIV to determine the concentration of the compound at which 50% of the MT-4 cells were destroyed.
row,Compound,IC50 [nM]
1,1-(4-hydroxybutyl) -6-phenylthiothymine [Compound 31],13000
2,1-(methylthiomethyl)-6-phenylthiothymine [Compound 32],1200
3,1-[(2-acetoxyethoxy)methyl]-6-phenylthiothymine [Compound 2],6700
4,1-[(2-phenylcarbamoyloxyethoxy) methyl]-6-m-tolylthiothymine [Compound 16],21000
5,1-butyl-5-ethyl-6-phenylthiouracil [Compound 252],16
6,1-ethoxymethyl-5-ethyl-6-phenylthiouracil [Compound 247],16
7,"COCn1c(Sc2ccccc2)c(C)c(=O)[nH]c1=O [Compound 22, 1-(methoxymethyl)-6-phenylthiothymine]",2100

# Same assay, conditions: Human immunodeficiency virus 1, MT4, 120 h, 5 days incubation at 37° C., concentration preventing the death of 50% of the MT-4 cells
row,Compound,IC50 [nM]
1,"CC(=O)OCCOCn1c(Sc2ccccc2)c(C)c(=O)[nH]c1=S [Compound 1, 1-[(2-acetoxyethoxy)methyl]-6-phenylthio-2-thiothymine]",2800
2,"CCOCn1c(Sc2ccccc2)c(CC)c(=O)[nH]c1=S [Compound 358, 1-ethoxymethyl-5-ethyl-6-phenylthio-2-thiouracil]",26
3,"CCOCn1c(Cc2ccccc2)c(CC)c(=O)[nH]c1=O [Compound 472, 6-benzyl-1-ethoxymethyl-5-ethyluracil]",41

# Tested on: MT-4 cells
# Assay: Cytotoxicity to MT-4 cells not infected with HIV
# Assay type: cell-based
# Settings: 5 days incubation, concentration at which 50% of the MT-4 cells were destroyed
# Procedure: as §1, §2
row,Compound,50% cytotoxic concentration to MT-4 cells [µM]
1,1-(4-hydroxybutyl) -6-phenylthiothymine [Compound 31],249
